Consider 13 compounds from patent publication US5916887A, “4-substituted-3-(2-amino-2-cycloalkyl methyl)-acetamido azetidin-2-one derivatives as cysteine proteinase regulators” (National Research Council of Canada, priority 1997, dated 1999).

For assay [1], the target named is T1, cathepsin B (Rattus norvegicus, UniProt P00787). The experiment in a line: In vitro assay procedure for cathepsin B (recombinant rat cathepsin B, N-CBZ-Phe-Arg-AMC substrate). Type of assay: biochemical. The conditions noted are these: pH 5.1, 10 min incubation at room temperature. The procedure:
In vitro assay procedure for cathepsin B
The compounds of formula I are tested for inhibition of cathepsin B using the known method (A. J. Barret et al., Biochem. J. 1982, 201, 189-198). To 170 μl of an enzyme-buffer mixture (enzyme: recombinant rat cathepsin B, diluted to give approximate 10 Fluorescence units/min, buffer: 56 mM sodium acetate, 1.124 mM EDTA, 10 mM DTT, pH 5.1) 10 μL of inhibitor (dissolved in DMSO) is added. After 10 min of incubation at room temperature, a 20 μl of 5 mM substrate (N-CBZ-Phe-Arg-AMC, dissolved in DMSO) is added to initiate reaction. Reading is followed up for 10 min on a Fluoroskan fluorescence reader (excitation at 380 nm, emission at 460 nm).
(§1) A plot of percentage of inhibition vs inhibitor concentration is obtained, and IC50 is determined using a linear regression calculation (concentration of inhibitor which will give 50% inhibition).
Target sequence in this assay (P00787 80-339): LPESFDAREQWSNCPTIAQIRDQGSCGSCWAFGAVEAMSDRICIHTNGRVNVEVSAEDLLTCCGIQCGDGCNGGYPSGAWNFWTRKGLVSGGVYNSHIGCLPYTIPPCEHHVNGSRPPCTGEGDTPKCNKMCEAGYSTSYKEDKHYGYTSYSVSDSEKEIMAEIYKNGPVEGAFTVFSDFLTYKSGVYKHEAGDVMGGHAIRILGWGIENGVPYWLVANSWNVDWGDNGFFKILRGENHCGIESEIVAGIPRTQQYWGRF

In assay [2] the target is T2, cathepsin L (Rattus norvegicus, UniProt P07154). The experiment in a line: In vitro assay procedure for cathepsin L (recombinant rat cathepsin L, N-CBZ-Phe-Arg-AMC substrate). Type of assay: biochemical. The conditions noted are these: pH 5.0, 10 min incubation at room temperature. How it is done: In vitro assay procedure for cathepsin L
To 170 μl of enzyme-buffer mixture (enzyme: recombinant rat cathepsin L, diluted to give approximate 15 Fluorescence units/min, buffer: 58.8 mM sodium citrate, 1.18 mM EDTA, 235 mM sodium chloride, 5 mM DTT, pH 5.0) 10 μL of inhibitor (dissolved in DMSO) is added. After 10 min of incubation at room temperature, 20 μl of 1 mM substrate (N-CBZ-Phe-Arg-AMC, dissolved in DMSO) is added to initiate reaction. Reading is followed up for 10 min on a Fluoroskan fluorescence reader (excitation at 380 nm emission at 460 nm).
as §1
Target sequence in this assay (P07154 114-334): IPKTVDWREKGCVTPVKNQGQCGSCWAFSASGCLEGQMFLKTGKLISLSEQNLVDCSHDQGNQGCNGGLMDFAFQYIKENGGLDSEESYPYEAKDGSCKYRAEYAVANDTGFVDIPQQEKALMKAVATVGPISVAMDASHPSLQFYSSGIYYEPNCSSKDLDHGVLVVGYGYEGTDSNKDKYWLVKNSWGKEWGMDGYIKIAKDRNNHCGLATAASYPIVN

Assay [3] deals with T2, cathepsin L. The experiment in a line: In vivo inhibition test for cathepsin L, rat liver ML fraction. Also on record: The precipitate (crude mitochondrial-lysosomal fraction; from tissue; host or cells: liver, crude mitochondrial-lysosomal (ML) fraction of dosed rodents. The conditions noted are these: 6 hours, mean for 3 animals. The procedure:
(§2) In vivo inhibition test for cathepsin B and L
(§3) The in vivo inhibition of cathepsin B and L are tested according to the known method (T. Towatari et al, FEBS, 1991, 280, 311-315). Inhibitor is injected intraperitoneally into rodents as a solution in saline containing DMSO or DMSO:PEG400 (1:1) at the doses indicated in Table 2. The rodents are killed after 6 hours, and the liver is perfused with ice-cold saline, and chilled on ice. Sample of 4 g of liver are homogenized in 7 volumes of 0.25 M sucrose. The homogenate is centrifuged at 800 g for 15 min. and the supernatant is centrifuged at 12,000 g for 30 min. The precipitate (crude mitochondrial-lysosomal fraction; ML fraction) is suspended in 2 ml of 0.05 M acetate buffer, pH 5.0, and then freeze-thawed for measurements of cathepsin B and L.
Target sequence in this assay (P07154 114-288 limits assumed): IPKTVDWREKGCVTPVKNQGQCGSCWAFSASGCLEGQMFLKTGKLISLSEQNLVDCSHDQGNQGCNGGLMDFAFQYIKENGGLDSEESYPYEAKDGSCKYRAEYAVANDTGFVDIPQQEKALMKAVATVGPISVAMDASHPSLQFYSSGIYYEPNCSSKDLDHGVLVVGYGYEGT
Target sequence in this assay (P07154 291-334 limits assumed): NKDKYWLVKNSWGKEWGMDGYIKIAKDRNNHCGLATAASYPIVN

Assay [4] addresses T1, cathepsin B. Description: In vivo inhibition test for cathepsin B, rat liver ML fraction. Also on record: The precipitate (crude mitochondrial-lysosomal fraction; from tissue; host or cells: liver, crude mitochondrial-lysosomal (ML) fraction of dosed rodents. The conditions noted are these: 6 hours, mean for 3 animals. The procedure: as §2, §3
Target sequence in this assay (P00787 80-126 limits assumed): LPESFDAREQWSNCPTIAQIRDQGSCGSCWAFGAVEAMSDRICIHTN
Target sequence in this assay (P00787 129-333 limits assumed): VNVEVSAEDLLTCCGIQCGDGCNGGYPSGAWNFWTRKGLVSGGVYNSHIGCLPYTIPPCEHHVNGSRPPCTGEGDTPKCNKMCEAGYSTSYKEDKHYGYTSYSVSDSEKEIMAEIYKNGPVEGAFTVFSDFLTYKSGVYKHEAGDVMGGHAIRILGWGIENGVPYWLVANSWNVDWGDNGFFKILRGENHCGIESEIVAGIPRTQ
Assay [5] deals with cathepsin B. Description: In vivo inhibition test for cathepsin B, mouse liver ML fraction. The note with it: 50 mg/kg intraperitoneal, 6 hours, mean for 3 animals. How it is done:
as §2, §3

Assay [6] has as its system cathepsin L. The experiment in a line: In vivo inhibition test for cathepsin L, mouse liver ML fraction. The note with it: 50 mg/kg intraperitoneal, 6 hours, mean for 3 animals. How it is done: as §2, §3

In the case of `CC(=O)O[C@@H]1NC(=O)[C@H]1NC(=O)[C@H](CC1CCCCC1)NC(=O)CCc1ccccc1` [Example 2, (3S,4S)-3-{2S-2-(3-phenylpropionoyl)amino-2-cyclohexylmethyl-acetamido}-4-acetoxy-azetidin-2-one], the IC50 was found to be 11600 nM at cathepsin B [1] and 2320 nM on cathepsin L [2].
On the same counts, the results for `N[C@@H](Cc1ccc(O[C@H]2NC(=O)[C@H]2NC(=O)[C@H](CC2CCCCC2)NC(=O)CCc2ccccc2)cc1)C(=O)O` [Example 4, (3S,4R)-3-{2S-2-(3-phenylpropionoyl)amino-2-cyclohexylmethyl-acetamido}-4-{4-(2S-2-amino-2-carboxy-ethyl)-phenoxy}-azetidin-2-one] are 9200 nM and 1800 nM.
For `CC(=O)O[C@@H]1NC(=O)[C@H]1NC(=O)[C@H](CC1CCCCC1)NC(=O)NCc1ccccc1` [Example 7, (3S,4S)-3-{2S-2-(benzylaminocarbonyl)amino-2-cyclohexylmethyl-acetamido}-4-acetoxy-azetidin-2-one] the same measures were 11600 nM and 2300 nM.
On the same counts, the results for `O=C(CCc1ccccc1)N[C@@H](CC1CCCCC1)C(=O)N[C@H]1C(=O)NC1Sc1ccccc1` (stereo partly drawn) [Example 5, (3S,4SR)-3-{2S-2-(3-phenylpropionoyl)amino-2-cyclohexylmethyl-acetamido}-4-phenylthio-azetidin-2-one] are 10400 nM and 16 nM.
In the case of `Cc1cccc(O[C@@H]2NC(=O)[C@H]2NC(=O)[C@H](CC2CCCCC2)NC(=O)OCc2ccccc2)c1` [Example 9A, (3S,4S)-3-(2S-2-benzyloxycarbonylamino-2-cyclohexylmethyl-acetamido)-4-(3-methyl-phenoxy)-azetidin-2-one], the IC50 turned out to be 6900 nM on cathepsin B [1] and 83 nM at cathepsin L [2].
On the same counts, the results for `Cc1cccc(O[C@H]2NC(=O)[C@H]2NC(=O)[C@H](CC2CCCCC2)NC(=O)OCc2ccccc2)c1` [Example 9B, (3S,4R)-3-(2S-2-benzyloxycarbonylamino-2-cyclohexylmethyl-acetamido)-4-(3-methyl-phenoxy)-azetidin-2-one] are 250 nM and 3 nM.
For `O=C(C=Cc1cccnc1)N[C@@H](CC1CCCCC1)C(=O)N[C@@H]1C(=O)N[C@H]1Oc1ccccc1` [Example 11, (3S,4S)-3-{2S-2-[3-(pyridin-3-yl)propenoyl]amino-2-cyclohexylmethyl-acetamido}-4-phenoxy-azetidin-2-one] the same measures were 2200 nM and 430 nM.
For `CC(=O)O[C@@H]1NC(=O)[C@H]1NC(=O)[C@H](CC1CCCCC1)NS(=O)(=O)/C=C/c1ccccc1` [Example 8, (3S,4S)-3-{2S-2-(phenylethenylsulfonyl)amino-2-cyclohexylmethyl-acetamido}-4-acetoxy-azetidin-2-one] the same measures were 11000 nM and 2160 nM.
Take `O=C(CCc1ccccc1)N[C@@H](CC1CCCCC1)C(=O)N[C@H]1C(=O)NC1S(=O)(=O)c1ccccc1` (stereo partly drawn) [Example 6, (3S,4SR)-3-{2S-2-(3-phenylpropionoyl)amino-2-cyclohexylmethyl-acetamido}-4-phenylsulfonyl-azetidin-2-one]: the IC50 on cathepsin B [1] came out at 29000 nM; on cathepsin L [2], 78 nM.
As for `N[C@@H](Cc1ccc(O[C@@H]2NC(=O)[C@H]2NC(=O)[C@H](Cc2ccccc2)NC(=O)CCc2ccccc2)cc1)C(=O)O` [Ref. Compd.], the results for the “Inhibition Cathepsin L” value at cathepsin L [3] (30 mg/kg intraperitoneal) and on cathepsin L [3] (70 mg/kg intraperitoneal) were 30% and 55%, respectively. The “Inhibition Cathepsin B” value on cathepsin B [4] (30 mg/kg intraperitoneal) is listed as 37%; at cathepsin B [4] (70 mg/kg intraperitoneal), 56%.
For the compound `O=C(C=Cc1ccncc1)N[C@@H](CC1CCCCC1)C(=O)N[C@@H]1C(=O)N[C@H]1Oc1ccccc1` [Example 10, (3S,4S)-3-{2S-2-[3-(pyridin-4-yl)propenoyl]amino-2-cyclohexylmethyl-acetamido}-4-phenoxy-azetidin-2-one], the IC50 at cathepsin B [1] worked out at 1000 nM; on cathepsin L [2] it was 400 nM.
For `CC(=O)O[C@@H]1NC(=O)[C@H]1NC(=O)[C@H](CC1CCCCC1)NC(=O)OCc1ccccc1` [Example 1, (3S,4S)-3-(2S-2-benzyloxycarbonylamino-2-cyclohexylmethyl-acetamido)-4-acetoxy-azetidin-2-one] the same measures were 8710 nM and 780 nM.
Regarding `N[C@@H](Cc1ccc(O[C@@H]2NC(=O)[C@H]2NC(=O)[C@H](CC2CCCCC2)NC(=O)CCc2ccccc2)cc1)C(=O)O` [Example 3, (3S,4S)-3-{2S-2-(3-phenylpropionoyl)amino-2-cyclohexylmethyl-acetamido}-4-{4-(2S-2-amino-2-carboxy-ethyl)-phenoxy}-azetidin-2-one], the IC50 on cathepsin B [1] is 34000 nM; on cathepsin L [2], 1820 nM. Besides, in the assay on cathepsin B [5], the “Inhibition Cathepsin B” value was 65%. In the assay with cathepsin L [6], the “Inhibition Cathepsin L” value is on record as 55%.
